These results are taken from patent US11214803B2, “Modulators of YAP1 expression” (Ionis Pharmaceuticals, Inc., priority 2019, dated 2022).

Series [1] can be described thus: Tolerability in Balb/c mice, plasma chemistry markers (Example 10). Format: in vivo. Particulars: male Balb/c mice, 50 mg/kg subcutaneously twice a week for four weeks, day 26. As for the experimental part:
Balb/c mice were treated with modified oligonucleotides selected from studies described above and evaluated for changes in the levels of various plasma chemistry markers.
(§1) Groups of male Balb/c mice at 4-6 weeks of age (obtained from Taconic) were injected subcutaneously twice a week for four weeks (for a total of 8 treatments) with 50 mg/kg of modified oligonucleotides. One group of male Balb/c mice was injected with PBS. Mice were euthanized on day 26 post start of treatment (24 hours following the final administration).

Series [2] can be described thus: Tolerability in Balb/c mice, body and organ weights (Example 10). Format: in vivo. Particulars: 50 mg/kg subcutaneously twice a week for four weeks, end of study. As for the experimental part: as §1
Body weights of Balb/c mice were measured at the end of the study, and the average body weight for each group is presented in the table below. Modified oligonucleotides that caused any changes in organ weights outside the expected range for modified oligonucleotides were excluded from further studies.

Strand notation (5' to 3'): a small letter for the sugar, then the base; units joined by * are phosphorothioate-linked, units joined directly phosphodiester-linked; [ ] holds rarer units or linkages, { } end groups; capitals alone tell only the bases. k = constrained ethyl (cEt); [5mC] = 5-methylcytosine; d = 2'-deoxy (DNA)

As for “715487 (kA*kT*kT*dA*d[5mC]*dT*dT*d[5mC]*dA*dT*dA*dG*d[5mC]*kT*kT*kA) [compound 715487]”, in series [1], the “ALT (U/L)” value is 79 U/L, the “AST (U/L)” value came out at 96 U/L and the “TBIL” value was 0.13 mg/dL. In series [2], this substance displayed a Kidney weight of 0.36 g, a Liver weight of 1.24 g, a Spleen weight of 0.14 g and a body weight of 23 g.
